According to US11746116B2, “Antibiotic resistance breakers” (KING'S COLLEGE LONDON, priority 2017, dated 2023):
Converted amounts (≈) assume the structure as drawn.

Tested on: extended bacterial panel
Experiment: MIC against an extended bacterial panel (Table 15)
Format: cell-based

CN(C)c1cc(NC(=O)CNC(C)(C)C)c(O)c2c1C[C@H]1C[C@H]3[C@H](N(C)C)C(O)=C(C(N)=O)C(=O)[C@@]3(O)C(O)=C1C2=O [Tigecycline, tigecycline, reference compound]
MIC (Enterococcus faecalis, ATCC29212, Enterococcus faecalis ATCC 29212): 0.125 µg/mL (≈ 0.213 µM)
MIC (Enterococcus faecalis, ATCC51299, Enterococcus faecalis ATCC 51299, VanB): 0.0625 µg/mL (≈ 0.107 µM)
MIC (Enterococcus faecalis, ATCC51575, Enterococcus faecalis ATCC 51575, VanB): 0.125 µg/mL (≈ 0.213 µM)
MIC (Enterococcus faecalis, ATCC700802, Enterococcus faecalis ATCC 700802, VanB): 0.125 µg/mL (≈ 0.213 µM)
MIC (Enterococcus faecalis, CCUG47775, Enterococcus faecalis CCUG 47775, Van A): 0.125 µg/mL (≈ 0.213 µM)
MIC (Enterococcus faecium, CCUG59167, Enterococcus faecium TUH44-29, CCUG 59167, Van A): 0.0625 µg/mL (≈ 0.107 µM)
MIC (Enterococcus gallinarum, ATCC 49608 / GALLINARUM, Enterococcus gallinarum ATCC 49608, VanC): 0.125 µg/mL (≈ 0.213 µM)

CN[C@H](CC(C)C)C(=O)N[C@H]1C(=O)N[C@@H](CC(N)=O)C(=O)N[C@H]2C(=O)N[C@H]3C(=O)N[C@H](C(=O)N[C@H](C(=O)O)c4cc(O)cc(O)c4-c4cc3ccc4O)[C@H](O)c3ccc(c(Cl)c3)Oc3cc2cc(c3O[C@@H]2O[C@H](CO)[C@@H](O)[C@H](O)[C@H]2O[C@H]2C[C@](C)(N)[C@H](O)[C@H](C)O2)Oc2ccc(cc2Cl)[C@H]1O [Vancomycin, vancomycin, reference compound]
MIC (Staphylococcus aureus, ATCC10390, Staphylococcus aureus ATCC 10390): 1 µg/mL (≈ 0.69 µM)
MIC (Staphylococcus aureus, ATCC 13709 / MRSA, Staphylococcus aureus ATCC 13709, MRSA): 0.5 µg/mL (≈ 0.345 µM)
MIC (Staphylococcus aureus, ATCC19636, Staphylococcus aureus Smith, ATCC 19636): 0.5 µg/mL (≈ 0.345 µM)
MIC (Staphylococcus aureus, ATCC27660, Staphylococcus aureus ATCC 27660): 0.5 µg/mL (≈ 0.345 µM)
MIC (Staphylococcus aureus, ATCC29213, Staphylococcus aureus ATCC 29213): 0.5 µg/mL (≈ 0.345 µM)
MIC (Staphylococcus aureus, ATCC29213, Staphylococcus aureus ATCC 29213 with 50% human serum): 1 µg/mL (≈ 0.69 µM)
MIC (Staphylococcus aureus, ATCC 33591 / MRSA, Staphylococcus aureus ATCC 33591, MRSA): 0.5 µg/mL (≈ 0.345 µM)
MIC (Staphylococcus aureus, ATCC 33592 / MRSA, Staphylococcus aureus ATCC 33592, MRSA): 0.5 µg/mL (≈ 0.345 µM)
MIC (Staphylococcus aureus, ATCC33594, Staphylococcus aureus ATCC 33594): 0.5 µg/mL (≈ 0.345 µM)
MIC (Staphylococcus aureus, ATCC49230, Staphylococcus aureus ATCC 49230): 0.5 µg/mL (≈ 0.345 µM)
MIC (Staphylococcus aureus, BAA-1556 / MRSA / USA300, Staphylococcus aureus FPR3757, BAA-1556, USA300 MRSA): 0.5 µg/mL (≈ 0.345 µM)
MIC (Staphylococcus aureus, BAA-1707 / MRSA / USA400, Staphylococcus aureus MW2, BAA-1707, USA400 MRSA): 0.5 µg/mL (≈ 0.345 µM)
MIC (Staphylococcus aureus, BAA-1717 / MRSA / USA300, Staphylococcus aureus TCH1516, BAA-1717, USA300 MRSA): 0.5 µg/mL (≈ 0.345 µM)
MIC (Staphylococcus aureus, MRSA / NRS 71, Staphylococcus aureus NRS71, MRSA): 0.25 µg/mL (≈ 0.173 µM)
MIC (Staphylococcus aureus, MRSA / NRS 119, Staphylococcus aureus NRS119, MRSA LZD-NS): 1 µg/mL (≈ 0.69 µM)
MIC (Staphylococcus aureus, MRSA / NRS 123 / USA400, Staphylococcus aureus NRS123, USA400 MRSA): 0.5 µg/mL (≈ 0.345 µM)
MIC (Staphylococcus aureus, MRSA / NRS 127, Staphylococcus aureus NRS127, MRSA LZD-NS): 1 µg/mL (≈ 0.69 µM)
MIC (Staphylococcus aureus, MRSA / NRS 271, Staphylococcus aureus E-MRSA 15, NRS271, MRSA LZD-NS): 0.5 µg/mL (≈ 0.345 µM)
MIC (Staphylococcus aureus, MRSA / NRS 382 / USA100, Staphylococcus aureus NRS382, USA100 MRSA): 1 µg/mL (≈ 0.69 µM)
MIC (Staphylococcus aureus, MRSA / NRS 383 / USA200, Staphylococcus aureus NRS383, USA200 MRSA TIG-NS): 0.5 µg/mL (≈ 0.345 µM)
MIC (Staphylococcus aureus, MRSA / NRS 384 / USA300, Staphylococcus aureus NRS384, USA300 MRSA): 0.5 µg/mL (≈ 0.345 µM)
MIC (Staphylococcus aureus, MRSA / NRS 385 / USA500, Staphylococcus aureus NRS385, USA500 MRSA): 0.5 µg/mL (≈ 0.345 µM)
MIC (Staphylococcus aureus, MRSA / NRS 386 / USA700, Staphylococcus aureus NRS386, USA700 MRSA): 0.5 µg/mL (≈ 0.345 µM)
MIC (Staphylococcus aureus, MRSA / NRS 387 / USA800, Staphylococcus aureus NRS387, USA800 MRSA): 1 µg/mL (≈ 0.69 µM)
MIC (Staphylococcus aureus, MRSA / NRS 483, Staphylococcus aureus NRS483, USA1000 MRSA): 0.5 µg/mL (≈ 0.345 µM)
MIC (Staphylococcus aureus, MRSA / NRS 484, Staphylococcus aureus NRS484, USA1100 MRSA): 1 µg/mL (≈ 0.69 µM)
MIC (Staphylococcus aureus, MRSA, Staphylococcus aureus ECL 2963621, MRSA DAP-NS): 1 µg/mL (≈ 0.69 µM)
MIC (Staphylococcus aureus, MRSA, Staphylococcus aureus ECL 2963667, MRSA DAP-NS): 1 µg/mL (≈ 0.69 µM)
MIC (Staphylococcus aureus, MRSA, Staphylococcus aureus ECL 2963743, MRSA DAP-NS): 1 µg/mL (≈ 0.69 µM)
MIC (Staphylococcus aureus, MRSA, Staphylococcus aureus R136): 0.5 µg/mL (≈ 0.345 µM)
MIC (Staphylococcus aureus, NRS72, Staphylococcus aureus Sanger-476, NRS72): 0.5 µg/mL (≈ 0.345 µM)
MIC (Staphylococcus aureus, NRS157, Staphylococcus aureus NRS157): 0.5 µg/mL (≈ 0.345 µM)
MIC (Staphylococcus aureus, Staphylococcus aureus 6538P): 0.125 µg/mL (≈ 0.0863 µM)
MIC (Staphylococcus epidermidis, ATCC12228, Staphylococcus epidermidis ATCC 12228): 0.5 µg/mL (≈ 0.345 µM)
MIC (Staphylococcus epidermidis, ATCC51625, Staphylococcus epidermidis CCF 15990, ATCC 51625): 1 µg/mL (≈ 0.69 µM)
MIC (Staphylococcus epidermidis, NRS101, Staphylococcus epidermidis NRS101): 1 µg/mL (≈ 0.69 µM)
MIC (Staphylococcus haemolyticus, ATCC29970, Staphylococcus haemolyticus ATCC 29970): 1 µg/mL (≈ 0.69 µM)
MIC (Staphylococcus intermedius, ATCC29663, Staphylococcus intermedius ATCC 29663): 1 µg/mL (≈ 0.69 µM)
MIC (Staphylococcus saprophyticus, ATCC15305, Staphylococcus saprophyticus ATCC 15305): 0.5 µg/mL (≈ 0.345 µM)
MIC (Strepotococcus pyogenes ATCC 14289): 0.25 µg/mL (≈ 0.173 µM)
MIC (Strepotococcus pyogenes ATCC 19615): 0.25 µg/mL (≈ 0.173 µM)
MIC (Streptococcus agalactiae, ATCC12386, Streptococcus agalactiae ATCC 12386): 0.5 µg/mL (≈ 0.345 µM)
MIC (Streptococcus mutans, ATCC25175, Streptococcus mutans ATCC 25175): 2 µg/mL (≈ 1.38 µM)
MIC (Streptococcus oralis, ATCC9811, Streptococcus oralis ATCC 9811): 0.5 µg/mL (≈ 0.345 µM)
MIC (Streptococcus pneumoniae, ATCC6301, Streptococcus pneumoniae ATCC 6301): 0.25 µg/mL (≈ 0.173 µM)
MIC (Streptococcus pneumoniae, ATCC49619, Streptococcus pneumoniae ATCC 49619): 0.25 µg/mL (≈ 0.173 µM)
MIC (Streptococcus pneumoniae, ATCC51916, Streptococcus pneumoniae Tenessee 23F, ATCC 51916, MDR): 0.25 µg/mL (≈ 0.173 µM)
MIC (Streptococcus pneumoniae, ATCC700669, Streptococcus pneumoniae SP264, ATCC 700669, ST 23F): 0.25 µg/mL (≈ 0.173 µM)
MIC (Streptococcus pneumoniae, ATCC700673, Streptococcus pneumoniae Hungary 19A, ATCC 700673, MDR): 0.25 µg/mL (≈ 0.173 µM)
MIC (Streptococcus pneumoniae, ATCC700675, Streptococcus pneumoniae S. Africa 6B-8, ATCC 700675): 0.25 µg/mL (≈ 0.173 µM)
MIC (Streptococcus pneumoniae, ATCC700676, Streptococcus pneumonia England ST14-9 ATCC 700676, ERY-R): 0.25 µg/mL (≈ 0.173 µM)
MIC (Streptococcus pneumoniae, ATCC 700677 / PRSP, Streptococcus pneumoniae CSR 14-10, ATCC 700677, PRSP): 0.25 µg/mL (≈ 0.173 µM)
MIC (Streptococcus pneumoniae, PRSP, Streptococcus pneumoniae TM532): 0.25 µg/mL (≈ 0.173 µM)
MIC (Streptococcus salivarius, ATCC13419, Streptococcus salivarius ATCC 13419): 0.5 µg/mL (≈ 0.345 µM)
MIC (Streptococcus sanguinis, ATCC10556, Streptococcus sanguinis ATCC 10556): 0.5 µg/mL (≈ 0.345 µM)
